Data: patent US8569350B2, “Anti-mitotic anti-proliferative compounds” (Rutgers, The State University of New Jersey, priority 2004, dated 2013)

Assays:
[1] = test system: NCI-H322M cells associated with non-small cell lung cancer; assay: NCI DTP cancer cell growth inhibition, NCI-H322M; assay type: cell-based; details: a large negative number denotes stronger activity
Method: (§1) A detailed evaluation of cancer cell growth inhibition effect for T111-T115 was conducted by the NIH-National […] (NCI) Developmental Therapeutic Program (DTP) (FIG. 4). A large negative number denotes stronger activity.

60-cell line panel = assay: NCI DTP cancer cell growth inhibition, 60-cell line panel overall; assay type: cell-based; details: across the 60-cell line panel
Method: as §1

[2] = test system: NCI-H522 cells associated with non-small cell lung cancer; assay: NCI DTP cancer cell growth inhibition, NCI-H522; assay type: cell-based; details: a large negative number denotes stronger activity
Method: as §1

[3] = test system: EKVX cells associated with non-small cell lung cancer; assay: NCI DTP cancer cell growth inhibition, EKVX; assay type: cell-based; details: a large negative number denotes stronger activity
Method: as §1

SMILES | melting point [°C] | growth inhibition (log 10GI50) [1] | overall growth inhibition performance (60-cell line panel) | growth inhibition (log 10GI50) [2] | growth inhibition (log 10GI50) [3]
COc1ccc(-n2cnnc2-c2cc(OC)c(OC)c(OC)c2)cc1F | 151 to 152 |  |  |  | 
COc1ccc(-n2cnnc2-c2cc(OC)c(OC)c(OC)c2)cc1 [Compound T111, 3-(3,4,5-trimethoxyl)phenyl-4-(4-methoxyl)phenyl-1,2,4(H)triazole] | 163 to 165 |  |  |  | 
COc1cc(-c2nncn2-c2ccc(N(C)C)cc2)cc(OC)c1OC [Compound T112, 3-(3,4,5-trimethoxyl)phenyl-4-(N,N-dimethylamino) phenyl-1,2,4(H)triazole] | 145 to 147 |  |  |  | 
COc1ccc(-n2cnnc2-c2cc(OC)c(OC)c(OC)c2)cc1O [Compound T113, 3-(3,4,5-trimethoxyl)phenyl-4-(3-hydroxyl, 4-methoxyl)phenyl-1,2,4(H)triazole] | 197 to 198 |  |  |  | 
COc1cc(-c2nncn2-c2ccc3c(ccn3C)c2)cc(OC)c1OC [Compound T115] | 157 to 159 | < −8.00 | performed uniformly well | < −8.00 | < −8.00
